# According to patent US11149037B2, “Pyrazole MAGL inhibitors” (H. Lundbeck A/S, priority 2017, dated 2021):
# Legend:
# FAAH [1] = target: FAAH (Homo sapiens (Human), UniProt O00519); test: In vitro competitive activity-based protein profiling, human proteomes (prefrontal cortex or PC3 cell membrane fractions); type: biochemical; settings: human proteome; for inhibition at 1 µM: read-out: FAAH % inh. 1 μM (human)
# Method in brief: (§1)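 Activity of MAGL and FAAH was quantified from fluorescent gel band intensities. Beforehand, inhibitors at several concentrations competed against subsequent probe labelling (FP-Rh, JW912 or HT-01) in species-matched proteomes, each step 30 min at 37° C.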
# MAGL [2] = target: MAGL (Homo sapiens (Human), UniProt Q99685); test: as above; type: biochemical; settings: human proteome; for inhibition at 1 µM: read-out: MAGL % inh. 1 μM (human)
# Sequence of MAGL (Homo sapiens (Human), UniProt Q99685) (Q99685 whole entry): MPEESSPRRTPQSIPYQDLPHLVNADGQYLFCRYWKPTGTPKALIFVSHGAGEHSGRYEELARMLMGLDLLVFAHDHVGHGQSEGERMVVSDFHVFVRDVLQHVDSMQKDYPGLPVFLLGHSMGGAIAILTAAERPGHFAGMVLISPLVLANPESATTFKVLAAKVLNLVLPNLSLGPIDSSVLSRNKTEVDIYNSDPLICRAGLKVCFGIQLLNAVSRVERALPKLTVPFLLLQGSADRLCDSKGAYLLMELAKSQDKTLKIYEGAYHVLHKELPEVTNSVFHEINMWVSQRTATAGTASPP
# Method in brief: as §1
# FAAH [3] = target: T1, FAAH (Mus musculus (Mouse), UniProt O08914); test: In vitro competitive activity-based protein profiling, mouse proteomes (brain membrane fraction or cell lysates); type: biochemical; settings: mouse proteome, read-out: FAAH % inh. 1 μM (mouse)
# T1 sequence (O08914 whole entry): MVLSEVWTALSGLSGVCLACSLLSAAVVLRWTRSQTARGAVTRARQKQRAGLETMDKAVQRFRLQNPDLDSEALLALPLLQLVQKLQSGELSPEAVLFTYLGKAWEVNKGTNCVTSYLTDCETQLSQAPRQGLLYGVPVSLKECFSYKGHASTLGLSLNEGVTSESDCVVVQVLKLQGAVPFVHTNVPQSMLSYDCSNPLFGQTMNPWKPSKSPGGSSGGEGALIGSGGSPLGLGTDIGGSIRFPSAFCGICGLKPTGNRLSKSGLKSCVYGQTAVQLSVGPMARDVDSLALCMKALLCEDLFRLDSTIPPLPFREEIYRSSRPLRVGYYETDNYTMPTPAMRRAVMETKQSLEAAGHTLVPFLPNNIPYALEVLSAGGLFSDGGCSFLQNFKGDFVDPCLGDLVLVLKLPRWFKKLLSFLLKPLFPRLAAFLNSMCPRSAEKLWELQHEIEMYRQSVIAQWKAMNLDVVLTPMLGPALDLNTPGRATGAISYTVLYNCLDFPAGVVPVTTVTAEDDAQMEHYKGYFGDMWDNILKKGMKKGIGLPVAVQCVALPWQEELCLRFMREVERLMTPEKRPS
# Method in brief: as §1
# MAGL [4] = target: T2, MAGL (Mus musculus (Mouse), UniProt O35678); test: as above; type: biochemical; settings: mouse proteome, read-out: MAGL % inh. 1 μM (mouse)
# T2 sequence (O35678 whole entry): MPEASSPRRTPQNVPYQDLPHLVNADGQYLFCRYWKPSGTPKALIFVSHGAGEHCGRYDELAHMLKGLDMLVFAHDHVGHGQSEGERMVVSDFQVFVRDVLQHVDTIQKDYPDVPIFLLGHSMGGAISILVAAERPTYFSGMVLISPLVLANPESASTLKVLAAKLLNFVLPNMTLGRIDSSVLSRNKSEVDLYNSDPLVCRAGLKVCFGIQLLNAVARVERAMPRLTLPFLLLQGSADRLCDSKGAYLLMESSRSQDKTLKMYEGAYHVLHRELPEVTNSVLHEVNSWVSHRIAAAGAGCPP
# Method in brief: as §1
# FAAH [5] = target: T1, FAAH; test: Mouse brain proteomes from inhibitor treated mice (oral gavage, sacrificed 4 h after administration); type: in vivo; settings: 5 mg/kg oral gavage
# Procedure: (§2) Preparation of Mouse Brain Proteomes from Inhibitor Treated Mice.
# (§3) Inhibitors were administered to wild-type C57B1/6J by oral gavage in a vehicle of polyethylene glycol. Each animal was sacrificed 4 h following administration and brain proteomes were prepared and analyzed according to previously established methods (See Niphakis, M. J., et al. (2011) ACS Chem. Neurosci. and Long, J. Z., et al. Nat. Chem. Biol. 5:37-44).
# MAGL [6] = target: T2, MAGL; test: as above; type: in vivo; settings: 5 mg/kg oral gavage
# Procedure: as §2, §3
# Sequence of FAAH (Homo sapiens (Human), UniProt O00519) (O00519 whole entry): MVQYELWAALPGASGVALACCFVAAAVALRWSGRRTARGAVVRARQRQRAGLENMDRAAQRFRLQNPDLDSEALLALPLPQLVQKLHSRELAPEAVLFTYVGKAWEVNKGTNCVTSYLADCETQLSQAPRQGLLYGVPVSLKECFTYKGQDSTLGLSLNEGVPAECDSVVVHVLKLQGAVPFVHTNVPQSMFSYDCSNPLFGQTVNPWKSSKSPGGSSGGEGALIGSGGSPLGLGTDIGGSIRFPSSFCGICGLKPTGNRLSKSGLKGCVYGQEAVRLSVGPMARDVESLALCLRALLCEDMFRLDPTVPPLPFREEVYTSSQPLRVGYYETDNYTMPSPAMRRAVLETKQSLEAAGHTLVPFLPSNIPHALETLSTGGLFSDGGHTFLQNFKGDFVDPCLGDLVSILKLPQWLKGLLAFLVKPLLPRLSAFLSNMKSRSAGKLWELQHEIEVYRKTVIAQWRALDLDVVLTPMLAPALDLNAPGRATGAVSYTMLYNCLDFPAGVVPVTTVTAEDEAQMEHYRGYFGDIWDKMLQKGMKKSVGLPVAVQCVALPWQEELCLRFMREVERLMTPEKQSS
SMILES,inhibition at 1 µM (FAAH [1]) [%],inhibition at 1 µM (MAGL [2]) [%],inhibition at 1 µM (FAAH [3]) [%],inhibition at 1 µM (MAGL [4]) [%],IC50 (FAAH [1]) [µM],IC50 (MAGL [2]) [µM],FAAH % inh. 5 mg/kg (mouse) (FAAH [5]),MAGL % inh. 5 mg/kg (mouse) (MAGL [6])
"C[C@H]1CN(C(=O)n2ccc(NS(C)(=O)=O)n2)CCN1Cc1ccc(Cl)c(N2CCC(F)CC2)c1 [Example 148, (S)-N-(1-(4-(4-Chloro-3-(4-fluoropiperidin-1-yl)benzyl)-3-methylpiperazine-1-carbonyl)-1H-pyrazol-3-yl)methanesulfonamide]",0 to 25,> 75,0 to 25,> 75,,,D (% inhibition is greater than or equal to 0% and less than 25%),A (% inhibition is greater than or equal to 75%)
"CC(=O)Nc1ccn(C(=O)N2CCN(Cc3ccc(Cl)cc3NCC(=O)O)CC2)n1 [Example 108, (2-((4-(3-Acetamido-1H-pyrazole-1-carbonyl)piperazin-1-yl)methyl)-5-chlorophenyl)glycine]",0 to 25,> 75,0 to 25,> 75,,,D (% inhibition is greater than or equal to 0% and less than 25%),D (% inhibition is greater than or equal to 0% and less than 25%)
"C[C@H]1CN(C(=O)n2ccc(NS(C)(=O)=O)n2)CCN1Cc1ccc(Cl)c(N2CC3COCC3C2)c1 (stereo partly drawn) [Example 143, N-(1-((3S)-4-(4-Chloro-3-(tetrahydro-1H-furo[3,4-c]pyrrol-5(3H)-yl)benzyl)-3-methylpiperazine-1-carbonyl)-1H-pyrazol-3-yl)methanesulfonamide]",0 to 25,> 75,0 to 25,> 75,,,D (% inhibition is greater than or equal to 0% and less than 25%),D (% inhibition is greater than or equal to 0% and less than 25%)
"C[C@H](c1ccc(Cl)c(N2CCC(F)CC2)c1)N1CCN(C(=O)n2ccc(NS(C)(=O)=O)n2)CC1 [Example 139, (R)-N-(1-(4-(1-(4-Chloro-3-(4-fluoropiperidin-1-yl)phenyl)ethyl)piperazine-1-carbonyl)-1H-pyrazol-3-yl)methanesulfonamide]",0 to 25,> 75,0 to 25,> 75,1 to 10,< 0.1,D (% inhibition is greater than or equal to 0% and less than 25%),D (% inhibition is greater than or equal to 0% and less than 25%)
"CC(=O)Nc1ccn(C(=O)N2CCN(Cc3ccc(Cl)cc3OCCCC(=O)O)CC2)n1 [Example 106, 4-(2-((4-(3-Acetamido-1H-pyrazole-1-carbonyl)piperazin-1-yl)methyl)-5-chlorophenoxy)butanoic acid]",0 to 25,> 75,0 to 25,> 75,,,D (% inhibition is greater than or equal to 0% and less than 25%),D (% inhibition is greater than or equal to 0% and less than 25%)
"CC(=O)Nc1ccn(C(=O)N2CCC3(CCCN3C(=O)c3ccc(C#N)c(C4CC4)c3)CC2)n1 [Example 87, N-(1-(1-(4-Cyano-3-cyclopropylbenzoyl)-1,8-diazaspiro[4.5]decane-8-carbonyl)-1H-pyrazol-3-yl)acetamide]",0 to 25,> 75,0 to 25,> 75,,,D (% inhibition is greater than or equal to 0% and less than 25%),D (% inhibition is greater than or equal to 0% and less than 25%)
"CN(Cc1ccc(C(F)(F)F)cc1N1CCOCC1)C1(C)CCN(C(=O)n2ccc(NS(C)(=O)=O)n2)CC1 [Example 94, N-(1-(4-Methyl-4-(methyl(2-morpholino-4-(trifluoromethyl)benzyl)amino)piperidine-1-carbonyl)-1H-pyrazol-3-yl)methanesulfonamide]",0 to 25,> 75,0 to 25,> 75,,,D (% inhibition is greater than or equal to 0% and less than 25%),A (% inhibition is greater than or equal to 75%)
"CC(=O)Nc1ccn(C(=O)N2CCN(Cc3ccc(-c4ccccc4)cc3C)CC2)n1 [Example 131, N-(1-(4-((3-Methyl-[1,1′-biphenyl]-4-yl)methyl)piperazine-1-carbonyl)-1H-pyrazol-3-yl)acetamide]",> 75,> 75,> 75,> 75,1 to 10,< 0.1,A (% inhibition is greater than or equal to 75%),A (% inhibition is greater than or equal to 75%)

# More lines, main results first:
inhibition at 1 µM (FAAH [1]) [%],inhibition at 1 µM (MAGL [2]) [%],inhibition at 1 µM (FAAH [3]) [%],inhibition at 1 µM (MAGL [4]) [%],IC50 (FAAH [1]) [µM],IC50 (MAGL [2]) [µM],SMILES,FAAH % inh. 5 mg/kg (mouse) (FAAH [5]),MAGL % inh. 5 mg/kg (mouse) (MAGL [6])
0 to 25,> 75,0 to 25,> 75,,,"CC(=O)Nc1ccn(C(=O)N2CCC3(CCN(Cc4ccc(C(N)=O)c(C(F)(F)F)c4)C3)CC2)n1 [Example 125, 4-((8-(3-Acetamido-1H-pyrazole-1-carbonyl)-2,8-diazaspiro[4.5]decan-2-yl)methyl)-2-(trifluoromethyl)benzamide]",D (% inhibition is greater than or equal to 0% and less than 25%),D (% inhibition is greater than or equal to 0% and less than 25%)
0 to 25,> 75,0 to 25,> 75,,,"CC(=O)Nc1ccn(C(=O)N2CC[C@H](Oc3ccc(C(N)=O)c(C(F)(F)F)c3)[C@H](F)C2)n1 [Example 118, 4-(((3R,4S)-1-(3-Acetamido-1H-pyrazole-1-carbonyl)-3-fluoropiperidin-4-yl)oxy)-2-(trifluoromethyl)benzamide]",D (% inhibition is greater than or equal to 0% and less than 25%),D (% inhibition is greater than or equal to 0% and less than 25%)
0 to 25,> 75,0 to 25,> 75,,,"CC1CN(C(=O)n2ccc(NS(C)(=O)=O)n2)CCN1Cc1ccc(C(F)(F)F)c(N2CCC(F)CC2)c1 (stereo not shown) [Example 141, N-(1-(4-(3-(4-Fluoropiperidin-1-yl)-4-(trifluoromethyl)benzyl)-3-methylpiperazine-1-carbonyl)-1H-pyrazol-3-yl)methanesulfonamide]",D (% inhibition is greater than or equal to 0% and less than 25%),A (% inhibition is greater than or equal to 75%)
0 to 25,> 75,0 to 25,> 75,,,"CS(=O)(=O)Nc1ccn(C(=O)N2CCN(Cc3ccc(C(F)(F)F)c(N4CC[C@H](F)C4)c3)CC2)n1 [Example 119, (S)-N-(1-(4-(3-(3-Fluoropyrrolidin-1-yl)-4-(trifluoromethyl)benzyl)piperazine-1-carbonyl)-1H-pyrazol-3-yl)methanesulfonamide]",D (% inhibition is greater than or equal to 0% and less than 25%),A (% inhibition is greater than or equal to 75%)
